According to patent US10793580B2, “Substituted pyrazoloazepin-8-ones and their use as phosphodiesterase inhibitors” (LEO Pharma A/S, priority 2016, dated 2020):

Target: human PDE4D catalytic domain (Homo sapiens (Human), UniProt Q08499)
Assay: PDE4 Assay (TR-FRET, FAM-cAMP cleavage)
Assay type: biochemical
Details: human PDE4D catalytic domain (UniProt Q08499 [S380-L740]); 50% inhibition of substrate cleavage; read-out: PDE4 IC50 range
Summary of the method: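 PDE4D catalytic domain (S380-L740) incubated briefly with unlabelled cAMP plus FAM-cAMP and titrated compound. Reaction stopped with binding buffer holding metal-ion nanoparticles that bind AMP phospho groups and Tb donor, and AMP formation read by TR-FRET. IC50 versus controls, reported as ranges (nM).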

Sequence of human PDE4D catalytic domain (Q08499 380-740): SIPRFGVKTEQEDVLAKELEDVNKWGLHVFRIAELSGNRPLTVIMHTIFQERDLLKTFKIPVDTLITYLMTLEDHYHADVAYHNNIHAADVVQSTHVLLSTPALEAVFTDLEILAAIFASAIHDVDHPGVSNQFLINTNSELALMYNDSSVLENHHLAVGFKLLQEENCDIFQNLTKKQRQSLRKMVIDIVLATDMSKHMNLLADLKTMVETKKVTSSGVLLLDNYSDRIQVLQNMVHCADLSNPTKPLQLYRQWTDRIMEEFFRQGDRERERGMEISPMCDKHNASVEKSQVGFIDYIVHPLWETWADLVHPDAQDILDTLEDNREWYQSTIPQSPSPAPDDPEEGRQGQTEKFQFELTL

## CCn1nc(CCCOC(=O)c2cnn(C)c2)c2c1C(=O)NCC1(CCOCC1)C2 [Example 238, 3-(1-ethyl-8-oxo-spiro[6,7-dihydro-4H-pyrazolo[3,4-c]azepine-5,4′-tetrahydropyran]-3-yl)propyl 1-methylpyrazole-4-carboxylate]
  IC50: < 100 nM

## CCn1nc(CCCOC(=O)c2cn(C)cn2)c2c1C(=O)NCC1(CCOCC1)C2 [Example 239, 3-(1-ethyl-8-oxo-spiro[6,7-dihydro-4H-pyrazolo[3,4-c]azepine-5,4′-tetrahydropyran]-3-yl)propyl 1-methylimidazole-4-carboxylate]
  IC50: < 100 nM

## CCn1nc(CCCOC(=O)c2coc(C)n2)c2c1C(=O)NCC1(CCOCC1)C2 [Example 240, 3-(1-ethyl-8-oxo-spiro[6,7-dihydro-4H-pyrazolo[3,4-c]azepine-5,4′-tetrahydropyran]-3-yl)propyl 2-methyloxazole-4-carboxylate]
  IC50: < 100 nM

## CCn1nc(CCCOC(=O)c2cnc(C)o2)c2c1C(=O)NCC1(CCOCC1)C2 [Example 241, 3-(1-ethyl-8-oxo-spiro[6,7-dihydro-4H-pyrazolo[3,4-c]azepine-5,4′-tetrahydropyran]-3-yl)propyl 2-methyloxazole-5-carboxylate]
  IC50: < 100 nM

## CCn1nc(CCCOC(=O)c2ccns2)c2c1C(=O)NCC1(CCOCC1)C2 [Example 242, 3-(1-ethyl-8-oxo-spiro[6,7-dihydro-4H-pyrazolo[3,4-c]azepine-5,4′-tetrahydropyran]-3-yl)propyl isothiazole-5-carboxylate]
  IC50: < 100 nM

## CCn1nc(CCCOC(=O)c2cnsc2)c2c1C(=O)NCC1(CCOCC1)C2 [Example 243, 3-(1-ethyl-8-oxo-spiro[6,7-dihydro-4H-pyrazolo[3,4-c]azepine-5,4′-tetrahydropyran]-3-yl)propyl isothiazole-4-carboxylate]
  IC50: < 100 nM

## CCn1nc(CCCOC(=O)c2cscn2)c2c1C(=O)NCC1(CCOCC1)C2 [Example 244, 3-(1-ethyl-8-oxo-spiro[6,7-dihydro-4H-pyrazolo[3,4-c]azepine-5,4′-tetrahydropyran]-3-yl)propyl thiazole-4-carboxylate]
  IC50: < 100 nM

## CCn1nc(CCCOC(=O)c2cncs2)c2c1C(=O)NCC1(CCOCC1)C2 [Example 245, 3-(1-ethyl-8-oxo-spiro[6,7-dihydro-4H-pyrazolo[3,4-c]azepine-5,4′-tetrahydropyran]-3-yl)propyl thiazole-5-carboxylate]
  IC50: < 100 nM

## CCn1nc(CCCOC(=O)C2CCOCC2)c2c1C(=O)NCC1(CCOCC1)C2 [Example 246, 3-(1-ethyl-8-oxo-spiro[6,7-dihydro-4H-pyrazolo[3,4-c]azepine-5,4′-tetrahydropyran]-3-yl)propyl tetrahydropyran-4-carboxylate]
  IC50: < 100 nM

## CCn1nc(CCCOC(=O)c2cnc(C)nc2)c2c1C(=O)NCC1(CCOCC1)C2 [Example 247, 3-(1-ethyl-8-oxo-spiro[6,7-dihydro-4H-pyrazolo[3,4-c]azepine-5,4′-tetrahydropyran]-3-yl)propyl 2-methylpyrimidine-5-carboxylate]
  IC50: < 100 nM

## CCn1ccc(C(=O)OCCCc2nn(CC)c3c2CC2(CCOCC2)CNC3=O)n1 [Example 248, 3-(1-ethyl-8-oxo-spiro[6,7-dihydro-4H-pyrazolo[3,4-c]azepine-5,4′-tetrahydropyran]-3-yl)propyl 1-ethylpyrazole-3-carboxylate]
  IC50: < 100 nM

## CCn1nc(CCCOC(=O)c2cc(C)n(C)n2)c2c1C(=O)NCC1(CCOCC1)C2 [Example 249, 3-(1-ethyl-8-oxo-spiro[6,7-dihydro-4H-pyrazolo[3,4-c]azepine-5,4′-tetrahydro-pyran]-3-yl)propyl 1,5-dimethylpyrazole-3-carboxylate]
  IC50: < 100 nM

## CCn1cc(C(=O)OCCCc2nn(CC)c3c2CC2(CCOCC2)CNC3=O)cn1 [Example 250, 3-(1-ethyl-8-oxo-spiro[6,7-dihydro-4H-pyrazolo[3,4-c]azepine-5,4′-tetrahydropyran]-3-yl)propyl 1-ethylpyrazole-4-carboxylate]
  IC50: < 100 nM

## CCc1nc(C(=O)OCCCc2nn(CC)c3c2CC2(CCOCC2)CNC3=O)co1 [Example 251, 3-(1-ethyl-8-oxo-spiro[6,7-dihydro-4H-pyrazolo[3,4-c]azepine-5,4′-tetrahydropyran]-3-yl)propyl 2-ethyloxazole-4-carboxylate]
  IC50: < 100 nM

## CCn1nc(CCCOC(=O)C2CN(C(C)=O)C2)c2c1C(=O)NCC1(CCOCC1)C2 [Example 252, 3-(1-ethyl-8-oxo-spiro[6,7-dihydro-4H-pyrazolo[3,4-c]azepine-5,4′-tetrahydropyran]-3-yl)propyl 1-acetylazetidine-3-carboxylate]
  IC50: 100 to 500 nM

## CCn1nc(CCCOC(=O)c2cc(C)ns2)c2c1C(=O)NCC1(CCOCC1)C2 [Example 253, 3-(1-ethyl-8-oxo-spiro[6,7-dihydro-4H-pyrazolo[3,4-c]azepine-5,4′-tetrahydropyran]-3-yl)propyl 3-methylisothiazole-5-carboxylate]
  IC50: < 100 nM

## CCn1nc(CCCOC(=O)c2csc(C)n2)c2c1C(=O)NCC1(CCOCC1)C2 [Example 254, 3-(1-ethyl-8-oxo-spiro[6,7-dihydro-4H-pyrazolo[3,4-c]azepine-5,4′-tetrahydropyran]-3-yl)propyl 2-methylthiazole-4-carboxylate]
  IC50: < 100 nM

## CCn1nc(CCCOC(=O)c2cnc(C)s2)c2c1C(=O)NCC1(CCOCC1)C2 [Example 255, 3-(1-ethyl-8-oxo-spiro[6,7-dihydro-4H-pyrazolo[3,4-c]azepine-5,4′-tetrahydropyran]-3-yl)propyl 2-methylthiazole-5-carboxylate]
  IC50: < 100 nM

## CCn1nc(CCCOC(=O)C2CCN(C)CC2)c2c1C(=O)NCC1(CCOCC1)C2 [Example 256, 3-(1-ethyl-8-oxo-spiro[6,7-dihydro-4H-pyrazolo[3,4-c]azepine-5,4′-tetrahydropyran]-3-yl)propyl 1-methylpiperidine-4-carboxylate]
  IC50: 100 to 500 nM

## CCn1nc(CCCOC(=O)C2CCSCC2)c2c1C(=O)NCC1(CCOCC1)C2 [Example 257, 3-(1-ethyl-8-oxo-spiro[6,7-dihydro-4H-pyrazolo[3,4-c]azepine-5,4′-tetrahydro-pyran]-3-yl)propyl tetrahydro-thiopyran-4-carboxylate]
  IC50: < 100 nM

## CCn1nc(CCCOC(=O)c2cc(C)nc(C)c2)c2c1C(=O)NCC1(CCOCC1)C2 [Example 258, 3-(1-ethyl-8-oxo-spiro[6,7-dihydro-4H-pyrazolo[3,4-c]azepine-5,4′-tetrahydro-pyran]-3-yl)propyl 2,6-dimethylpyridine-4-carboxylate]
  IC50: < 100 nM

## CCc1cc(C(=O)OCCCc2nn(CC)c3c2CC2(CCOCC2)CNC3=O)nn1C [Example 259, 3-(1-ethyl-8-oxo-spiro[6,7-dihydro-4H-pyrazolo[3,4-c]azepine-5,4′-tetrahydro-pyran]-3-yl)propyl 5-ethyl-1-methyl-pyrazole-3-carboxylate]
  IC50: < 100 nM

## CCc1nc(C(=O)OCCCc2nn(CC)c3c2CC2(CCOCC2)CNC3=O)cs1 [Example 260, 3-(1-ethyl-8-oxo-spiro[6,7-dihydro-4H-pyrazolo[3,4-c]azepine-5,4′-tetrahydropyran]-3-yl)propyl 2-ethylthiazole-4-carboxylate]
  IC50: < 100 nM

## CCn1nc(CCCOC(=O)C2CCN(C(C)=O)CC2)c2c1C(=O)NCC1(CCOCC1)C2 [Example 261, 3-(1-ethyl-8-oxo-spiro[6,7-dihydro-4H-pyrazolo[3,4-c]azepine-5,4′-tetrahydropyran]-3-yl)propyl 1-acetylpiperidine-4-carboxylate]
  IC50: < 100 nM

## CCn1nc(CCCOC(=O)C2CCS(=O)(=O)CC2)c2c1C(=O)NCC1(CCOCC1)C2 [Example 262, 3-(1-ethyl-8-oxo-spiro[6,7-dihydro-4H-pyrazolo[3,4-c]azepine-5,4′-tetrahydro-pyran]-3-yl)propyl 1,1-dioxothiane-4-carboxylate]
  IC50: < 100 nM

## CCn1nc(CCCOC(=O)C2CCN(C(=O)OC)CC2)c2c1C(=O)NCC1(CCOCC1)C2 [Example 263, [3-(1-ethyl-8-oxo-spiro[6,7-dihydro-4H-pyrazolo[3,4-c]azepine-5,4′-tetrahydro-pyran]-3-yl)propyl] 1-methoxy-carbonylpiperidine-4-carboxylate]
  IC50: < 100 nM

## CCn1nc(CCCOC(=O)C2CCN(C(=O)N(C)C)CC2)c2c1C(=O)NCC1(CCOCC1)C2 [Example 264, 3-(1-ethyl-8-oxo-spiro[6,7-dihydro-4H-pyrazolo[3,4-c]azepine-5,4′-tetrahydro-pyran]-3-yl)propyl 1-(dimethyl-carbamoyl)piperidine-4-carboxylate]
  IC50: < 100 nM

## CCn1nc(CCCCOC(=O)C2CCOC2)c2c1C(=O)NCC1(CCOCC1)C2 (stereo not shown) [Example 265, 4-(1-ethyl-8-oxo-spiro[6,7-dihydro-4H-pyrazolo[3,4-c]azepine-5,4′-tetrahydropyran]-3-yl)butyl tetrahydrofuran-3-carboxylate]
  IC50: < 100 nM

## CCn1nc(CCCCOC(=O)c2coc(C)n2)c2c1C(=O)NCC1(CCOCC1)C2 [Example 266, 4-(1-ethyl-8-oxo-spiro[6,7-dihydro-4H-pyrazolo[3,4-c]azepine-5,4′-tetrahydropyran]-3-yl)butyl 2-methyloxazole-4-carboxylate]
  IC50: < 100 nM

## CCn1nc(CCCCOC(=O)c2cnc(C)o2)c2c1C(=O)NCC1(CCOCC1)C2 [Example 267, 4-(1-ethyl-8-oxo-spiro[6,7-dihydro-4H-pyrazolo[3,4-c]azepine-5,4′-tetrahydropyran]-3-yl)butyl 2-methyloxazole-5-carboxylate]
  IC50: < 100 nM

## CCn1nc(CCCCOC(=O)c2cnsc2)c2c1C(=O)NCC1(CCOCC1)C2 [Example 268, 4-(1-ethyl-8-oxo-spiro[6,7-dihydro-4H-pyrazolo[3,4-c]azepine-5,4′-tetrahydropyran]-3-yl)butyl isothiazole-4-carboxylate]
  IC50: < 100 nM
